Experimental data from US20250000979A1, “TRIPLET-TRIPLET ENERGY TRANSFER WITH LIGHT EXCITATION AT LONG WAVELENGTHS AND METHODS THEREOF” (priority 2023, published 2025).
Marks after values point to notes of the source that are not given here.

Experiments:
HeLa tumor = experiment: In vivo light-triggered prodrug activation and tumor inhibition; parameters: species or system BALB/c nude mice; details: 8 mg/kg intravenous Day 1 and 6, no light
Description: Encouraged by the anti-proliferation effect and tumor retention capability, Os/BC NPs were considered as an applicable agent for light-triggered drug release and photoactivated cancer chemotherapy. The HeLa tumor-bearing mice were randomly divided into […] (n=5) when the tumors reached at around […]. PBS, free Cb (8 mg/kg), Os NPs (at the equivalent concentration of Os in Os/BC NPs), BC NPs (at the equivalent concentration of Cb) and Os/BC NPs (at the equivalent concentration of Cb) were intravenously injected on Day 1 (FIG. 6C). At 24 h post injection, NIR-light irradiation (690 nm, 300 mW/cm^2, 10 min) was applied topically onto the tumor area (FIG. 6D). The formulation injection and light irradiation were repeated on Day 6 and 7, respectively. For evaluating therapeutic efficacy, tumor volume was recorded within the treatment period. […] However, no statistical difference was found between Group 3 and Groups 1, 2, 4 and 5. […] Hematoxylin and eosin (H&E) staining assay was conducted to investigate the pathology of the tumors and organs. […]
The anti-tumor efficacy of the formulations in presence or absence of light was investigated with HeLa tumor-bearing mice. […] Tumor sizes and body weights were measured during the period, and the tumor volume was calculated as V=½×width^2×length. […]

[1] = in toluene, calculated by TD-DFT, referred to previous studies; cited from earlier work
[2] = N2-saturated solution without quencher; cited from earlier work
[3] = Encapsulation efficiency and loading capacity of Os/BC NP (HPLC); type: physicochemical; details: component of Os/BC NP
Description: Flash nanoprecipitation method was used to fabricate the photosensitizer/prodrug-loading nanoparticles. […] Different formulations (Os NPs, BC NPs and Os/BC NPs) were then prepared with optimized ratios of components. Briefly, 224 μL of the mixed stock solution was added into 1.8 mL N2-saturated water under vortexing. The resulted solutions were added to dialysis bags (MW: 3400 Da) and dialyzed against 4 L of water for 24 h. The water out of dialysis bag was renewed every 8 h. The resulted solution of NPs was collected and filtrated with 220 nm filter. Finally, the NPs solutions were concentrated by ultrafiltration (Mw=100 kDa, 2000×g, 10 min) and stored at 4° C. until use. The concentrations of each component were measured by using HPLC. Loading capacity and encapsulation efficiency were calculated as follow: […]

[4] = Stern-Volmer phosphorescence quenching assay (TTET from Os(bptpy)2^2+ to BODIPY-Cb); type: physicochemical
Description: The energy transfer quenching rate constants (kTTET) was measured by Stern-Volmer experiment. […] Oxygen was removed by nitrogen bubbling (50 mL/min) for 10 min.
Energy transfer quenching rate constants of this TTET process, quantified as kTTET, can be calculated based on the below equation (2)
(τ0: phosphorescence lifetime of Os(bptpy)2^2+ in N2-saturated solution without quencher.)
For Os(bptpy)2^2+, τ0=0.20 μs.

[5] = Photophysical properties (UV-Vis absorption, emission, energy levels); type: physicochemical; details: for λabs, max (S0-S1): S0-S1 (1MLCT) absorption; for λabs, max (S0-S1) / λabs, max (S0-T1): dichloromethane with 2% acetone, 10 μM; for λabs, max (S0-T1): S0-T1 (3MLCT, S-T) absorption; for E (absorption coefficient, S0-T1 band): at 688 nm (S0-T1); for Energy level T1 state: calculated from maximum T1 (phosphorescence) emission wavelength
Excerpt: The absorption peak at about 492 nm is identified as the singlet metal-to-ligand charge transfer (^1MLCT) absorption, also termed as singlet-singlet (S-S) absorption. […] The two twistable bromophenyl groups of the bromophenyl terpyridine ligands extend the S-T absorption from 650 nm to 750 nm with increased absorption coefficient.
CombiFlash Rf chromatography instrument was purchased from Teledyne ISCO (Lincoln, USA) for chemical purification. Light sources used in this study were purchased from Yuanming Laser (Ningbo, China) and Mightex (CA, USA). The purity verification and photolysis study were conducted with a high-performance liquid chromatography (HPLC) system (Agilent technologies, 1260), attached with C-18 columns which were obtained from Agilent (Santa Clara, California, United States). Nuclear magnetic resonance (NMR) spectroscopy was collected by Bruker AVANCE III HD 500 spectrometer (MA, US). Fluorescence, phosphorescence and UV-vis spectra were collected by a SpectraMax M4 microplate reader (Molecular Devices, CA, US). The particle size and surface charge were recorded by a dynamic light scattering (DLS) device, Zetasizer Nano-ZS90 (Malvern instruments, UK). Transmission electron microscope (TEM) imaging was conducted on a Hitachi HT7700 TEM (Tokyo, Japan). ACEA NovoCyte Quanteon flow cytometer (ACEA Biosciences, CA, USA) was used for flow cytometry. In vivo and ex vivo imaging of the mice were conducted with an In Vivo Imaging System (PerkinElmer, USA). Devices for animal study like including balance and vernier caliper were kindly provided by The Centre for Comparative Medicine Research (CCMR), The University of Hong Kong.

Row | Compound | tumor volume (anti-tumor effect) (HeLa tumor) | T1 lifetime [1] | τ0 phosphorescence lifetime [2] | Encapsulation Efficiency [3] | Loading Capacity [3] | Quenching constant kq ([4]; 10 μM Os(bptpy)2^2+, quencher BODIPY-Cb 0-7.5 μM, N2) | TTET rate constant (kTTET) ([4]; energy transfer from T1 of Os(bptpy)2^2+ to T1 of BODIPY-Cb) | λabs, max (S0-S1) [5] | λabs, max (S0-S1) ([5]; listed as Os(bptpy)2•2PF6) | λabs, max (S0-T1) [5] | λabs, max (S0-T1) ([5]; listed as Os(bptpy)2•2PF6) | E (absorption coefficient, S0-S1 band) ([5]; at 491 nm (S0-S1)) | E (absorption coefficient, S0-T1 band) [5] | E (absorption coefficient, S0-T1 band) ([5]; listed as Os(bptpy)2•2PF6) | Energy level S1 state ([5]; calculated by maximum S1 emission wavelength, E = 1240/λem, S1) | Energy level T1 state ([5]; E = 1240/λem) | Energy level T1 state ([5]; E = 1240/λem, listed as Os(bptpy)2•2PF6) | λem, max ([5]; λex = 491 nm) | λem, max ([5]; λex = 688 nm)
1 | O=C(O)CCCc1ccc(N(CCCl)CCCl)cc1 [chlorambucil] | did not exhibit detectable anti-tumor effect | – | – | – | – | – | – | – | – | – | – | – | – | – | – | – | – | – | –
2 | Os (II) bromophenyl terpyridine complex [Os(bptpy)2^2+] | – | 0.20^f μs | 0.20 μs | 29.43% | 0.22% | (5.491±0.282)×10^4 M^−1 | (2.72±0.14)×10^11 M^−1 s^−1 | about 492 nm | 491 (S0-S1) nm | 688 nm | 688 (S0-T1) nm | 73500 M⁻¹ cm⁻¹ | 26600 M⁻¹ cm⁻¹ | 26600 M⁻¹ cm⁻¹ | 2.56^h eV | 1.69 eV | 1.69^i eV | 498^c nm | 734^d nm
